Several values for one entry are separate records, joined by “and”; a condition that tells them apart may be missing. Equal values may be shown once. Toxic doses and inconclusive results are not listed. No stated cut-off is given here; in the data, active means T/C of 150% or more; inactive means T/C below 125%.
Test system: L1210 leukemia ip in BDF1 mice, survival T/C
Test: NCI In Vivo Anticancer Drug Screen. Data for tumor model L1210 Leukemia (intraperitoneal) in B6D2F1 (BDF1) mice
Details: endpoint: mean survival time, higher = longer survival
In short: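 Antitumor effect is assessed in tumor-bearing animals. Survival in the compound arm is compared with a vehicle-dosed control arm and expressed as their quotient.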

[1] = dose: 100.0 mg/kg/injection, schedule: Q01DX009 (ip), vehicle: Klucel (hydroxypropylcellulose) (HPC)
[2] = dose: 200.0 mg/kg/injection, schedule: Q01DX009 (ip), vehicle: Klucel (hydroxypropylcellulose) (HPC)
[3] = dose: 400.0 mg/kg/injection, schedule: Q01DX009 (ip), vehicle: Klucel (hydroxypropylcellulose) (HPC)
[4] = dose: 100.0 mg/kg/injection, schedule: Q01DX009 (ip), vehicle: saline
[5] = dose: 100.0 mg/kg/injection, schedule: Q04DX003 (ip), vehicle: saline with Tween-80
[6] = dose: 100.0 mg/kg/injection, schedule: Q04DX003 (ip), vehicle: Klucel (hydroxypropylcellulose) (HPC)
[7] = dose: 200.0 mg/kg/injection, schedule: Q04DX003 (ip), vehicle: Klucel (hydroxypropylcellulose) (HPC)
[8] = dose: 400.0 mg/kg/injection, schedule: Q04DX003 (ip), vehicle: Klucel (hydroxypropylcellulose) (HPC)
[9] = dose: 100.0 mg/kg/injection, schedule: Q04DX003 (ip), vehicle: saline
[10] = dose: 200.0 mg/kg/injection, schedule: Q04DX003 (ip), vehicle: saline
[11] = dose: 200.0 mg/kg/injection, schedule: Q01DX009 (ip), vehicle: saline
[12] = dose: 400.0 mg/kg/injection, schedule: Q01DX009 (ip), vehicle: saline
[13] = dose: 100.0 mg/kg/injection, schedule: Q01DX001 (ip), vehicle: other
[14] = dose: 200.0 mg/kg/injection, schedule: Q01DX001 (ip), vehicle: other
[15] = dose: 400.0 mg/kg/injection, schedule: Q01DX001 (ip), vehicle: other

Measured: T/C

Cc1cccc2c(Cl)c3cccc(C)c3nc12
inactive: [1] 96 % of control | dose: 100.0 mg/kg/injection, schedule: Q04DX003 (ip), vehicle: other 95 % of control | [2] 93 % of control | dose: 200.0 mg/kg/injection, schedule: Q04DX003 (ip), vehicle: other 94 % of control | [3] 102 % of control | dose: 400.0 mg/kg/injection, schedule: Q04DX003 (ip), vehicle: other 97 % of control

O=C(O)CNCC(=O)O
inactive: dose: 25.0 mg/kg/injection, schedule: Q01DX009 (ip), vehicle: saline 103 % of control | dose: 50.0 mg/kg/injection, schedule: Q01DX009 (ip), vehicle: saline 90 % of control | [4] 93 % of control and 95 % of control | [5] 105 % of control | dose: 200.0 mg/kg/injection, schedule: Q04DX003 (ip), vehicle: saline with Tween-80 101 % of control | dose: 400.0 mg/kg/injection, schedule: Q04DX003 (ip), vehicle: saline with Tween-80 105 % of control

O=C1c2ccccc2C(O)(O)C1(O)C1(O)C(=O)c2ccccc2C1(O)O (configuration not stated)
inactive: dose: 100.0 mg/kg/injection, schedule: Q01DX001 (ip), vehicle: carboxymethylcellulose (CMC) 109 % of control | dose: 200.0 mg/kg/injection, schedule: Q01DX001 (ip), vehicle: carboxymethylcellulose (CMC) 103 % of control

Cc1nc(N)[nH]c(=O)c1CCCNc1ccc(F)cc1
inactive: dose: 25.0 mg/kg/injection, schedule: Q01DX001 (ip), vehicle: saline with Tween-80 95 % of control | dose: 50.0 mg/kg/injection, schedule: Q01DX001 (ip), vehicle: saline with Tween-80 93 % of control | dose: 100.0 mg/kg/injection, schedule: Q01DX001 (ip), vehicle: saline with Tween-80 92 % of control

COc1cc(C(=O)N/N=C/N(C)C)cc(OC)c1OC
inactive: dose: 75.0 mg/kg/injection, schedule: Q01DX009 (ip), vehicle: Klucel (hydroxypropylcellulose) (HPC) 109 % of control | [6] 99 % of control | dose: 150.0 mg/kg/injection, schedule: Q01DX009 (ip), vehicle: Klucel (hydroxypropylcellulose) (HPC) 102 % of control | [7] 99 % of control | dose: 300.0 mg/kg/injection, schedule: Q01DX009 (ip), vehicle: Klucel (hydroxypropylcellulose) (HPC) 89 % of control | [8] 100 % of control

O=C1c2ccccc2C(Cl)=C(Cl)C1(Cl)Cl
inactive: dose: 25.0 mg/kg/injection, schedule: Q01DX009 (ip), vehicle: Klucel (hydroxypropylcellulose) (HPC) 90 % of control | dose: 50.0 mg/kg/injection, schedule: Q01DX009 (ip), vehicle: Klucel (hydroxypropylcellulose) (HPC) 90 % of control | [1] 90 % of control | [6] 96 % of control

COc1ccc([N+](=O)[O-])cc1NC(=O)Nc1cccc(F)c1
inactive: dose: 100.0 mg/kg/injection, schedule: Q01DX009 (ip), vehicle: gum acacia 90 % of control | dose: 200.0 mg/kg/injection, schedule: Q01DX009 (ip), vehicle: gum acacia 95 % of control | dose: 400.0 mg/kg/injection, schedule: Q01DX009 (ip), vehicle: gum acacia 90 % of control

COCCCN=C(N)N
inactive: dose: 50.0 mg/kg/injection, schedule: Q04DX003 (ip), vehicle: saline 98 % of control | [9] 104 % of control | [10] 104 % of control

CC(=O)Nc1cc(C)no1
inactive: [4] 103 % of control | [6] 102 % of control | [11] 100 % of control | [7] 96 % of control | [12] 101 % of control | [8] 92 % of control

Cc1cc(N(CCOS(C)(=O)=O)CCOS(C)(=O)=O)ccc1C=Nc1ccc(C(=O)O)c(O)c1
inactive: dose: 4.0 mg/kg/injection, schedule: Q01DX009 (ip), vehicle: saline with Tween-80 111 % of control | dose: 6.0 mg/kg/injection, schedule: Q01DX009 (ip), vehicle: saline with Tween-80 119 % of control

NC(=S)N/N=C1\c2ccccc2-c2c(F)c(F)c(F)c(F)c21
inactive: dose: 5.0 mg/kg/injection, schedule: Q01DX001 (ip), vehicle: carboxymethylcellulose (CMC) 96 % of control | dose: 10.0 mg/kg/injection, schedule: Q01DX001 (ip), vehicle: carboxymethylcellulose (CMC) 107 % of control | dose: 20.0 mg/kg/injection, schedule: Q01DX001 (ip), vehicle: carboxymethylcellulose (CMC) 96 % of control

CCCCCCS(=O)(=O)c1n[nH]c(=O)[nH]c1=O
inactive: [13] 98 % of control | [14] 95 % of control | [15] 101 % of control

CN(C)CCCN=Cc1ccc(O)cc1O.CN(C)CCCN=Cc1ccc(O)cc1O.[Ni+2]
inactive: dose: 25.0 mg/kg/injection, schedule: Q04DX003 (ip), vehicle: saline with Tween-80 91 % of control | dose: 50.0 mg/kg/injection, schedule: Q04DX003 (ip), vehicle: saline with Tween-80 91 % of control | [5] 89 % of control

C=CS(=O)(=O)CCN(C)C
inactive: dose: 100.0 mg/kg/injection, schedule: Q04DX002 (ip), vehicle: saline 94 % of control | dose: 200.0 mg/kg/injection, schedule: Q04DX002 (ip), vehicle: saline 90 % of control | dose: 400.0 mg/kg/injection, schedule: Q04DX002 (ip), vehicle: saline 94 % of control

Brc1nnnn1-c1ccccc1
inactive: [1] 99 % of control | [6] 97 % of control | [2] 98 % of control | [7] 108 % of control | [3] 96 % of control | [8] 94 % of control

CCC(C)C(C)CO (configuration not stated)
inactive: dose: 50.0 mg/kg/injection, schedule: Q01DX001 (ip), vehicle: saline 108 % of control | dose: 100.0 mg/kg/injection, schedule: Q01DX001 (ip), vehicle: saline 100 % of control | dose: 200.0 mg/kg/injection, schedule: Q01DX001 (ip), vehicle: saline 88 % of control

COc1ccc(C(=O)N/N=C/C(CC(O)CO)=N/NC(=O)c2ccc(OC)cc2)cc1 (configuration not stated)
inactive: [6] 95 % of control | [7] 92 % of control | [8] 96 % of control

CC(=O)c1cccc(NC(=O)Nc2ccc(Nc3ccccc3)cc2)c1
inactive: dose: 100.0 mg/kg/injection, schedule: Q01DX009 (ip), vehicle: other 103 % of control | dose: 200.0 mg/kg/injection, schedule: Q01DX009 (ip), vehicle: other 101 % of control | dose: 400.0 mg/kg/injection, schedule: Q01DX009 (ip), vehicle: other 93 % of control

CCCCCC/C(=N/NC(N)=O)C(OC)OC
inactive: [13] 94 % of control | [14] 105 % of control | [15] 100 % of control

CCOc1ccn(CC(=O)Nc2nccs2)c(=O)n1
inactive: [4] 100 % of control | [9] 98 % of control | [11] 103 % of control | [10] 96 % of control | [12] 105 % of control | dose: 400.0 mg/kg/injection, schedule: Q04DX003 (ip), vehicle: saline 100 % of control
